Values of other authors in patent publication US20120065069A1, “AGENT FOR REDUCING NICOTINE AND HARMFUL COMPONENTS IN TOBACCO LEAVES FOR USE IN FIELD CULTIVATION OF TOBACCO” (TOBACCO RESEARCH INSTITUTE OF HUBEI PROVINCE, priority 2009, published 2012).

Legend:
[1] = system: flue-cured tobacco; conditions: for effect in reducing the nicotine content: single ingredient, flue-cured tobacco, Liu et al. 2005 (IAA), Gao et al. 2005 (α-NAA, variety K326); for effect in nicotine reduction: Feng Ding thesis 2006, flue-cured tobacco
[2] = system: bean seedling; conditions: 2 mmol/L salicylic acid
[3] = system: corn; conditions: 0.5 mmol/L salicylic acid

Compound | effect in reducing the nicotine content [1] | effect in nicotine reduction [1] | further results
O=C(O)Cc1cccc2ccccc12 [naphthylacetic acid] | certain effects | – | –
O=C(O)c1ccccc1O [salicylic acid] | – | – | effect on damage of drought stress to bean seedling [2]: alleviate the damage of drought stress; effect on tolerance of corn to low temperature [3]: enhance the tolerance
O=C(O)Cc1c[nH]c2ccccc12 [indolylacetic acid] | certain effects | – | –
C[N+](C)(C)CCO.[Cl-] [CC, choline chloride] | – | significant effects | –
O=C(O)COc1ccc(Cl)cc1Cl [2,4-D, 2,4-dichlorophenoxyacetic acid] | – | significant effects | –
